Values of other authors as cited in US9006292B2, “Metadichol® liquid and gel nanoparticle formulations” (NanoRx, Inc., priority 2013, dated 2015).
Read-outs that look alike come from different tables or passages of the source.

Assays:
[1] = topical, phase I trial of 14 patients
[2] = tested on: P. falciparum
[3] = tested on: RDW; settings: 6 months
[4] = tested on: Lp(a); settings: in vivo

For `C=C1/C(=C\C=C2/CCC[C@]3(C)[C@@H]([C@H](C)CCCC(C)(C)O)CC[C@@H]23)C[C@@H](O)C[C@@H]1O` [1,25-dihydroxycholecalciferol], the “prevention of chemotherapy-induced alopecia” value [1] is given as “failed to show efficacy” and the “growth of P. falciparum in culture” value ([2]; low doses) is given as “inhibitory”.
In the case of `C=C1/C(=C\C=C2/CCC[C@]3(C)[C@@H]([C@H](C)CCCC(C)C)CC[C@@H]23)C[C@@H](O)C[C@@H]1O` [1-hydroxy Vitamin D-3], the “growth of P. falciparum in culture” value ([2]; low doses) is given as “inhibitory”.
For `C=C1CC[C@H](O)C/C1=C/C=C1\CCC[C@]2(C)[C@@H]([C@H](C)CCCC(C)(C)O)CC[C@@H]12` [25-hydroxy vitamin D3], the “growth of P. falciparum in culture” value ([2]; low doses) is listed as “inhibitory”.
In the case of `COCCc1ccc(OCC(O)CNC(C)C)cc1` (stereo not drawn) [Metoprolol], the RDW ([3]; 100 mg/day, n=35, from 15.6) is listed as 15.45.
In the case of `OC(CNCC(O)C1CCc2cc(F)ccc2O1)C1CCc2cc(F)ccc2O1` (stereo not drawn) [Nebivolol], the RDW ([3]; 5 mg/d, n=37, from 15.8) is given as 15.
In the case of `C=C1CC[C@H](O)C/C1=C/C=C1\CCC[C@]2(C)[C@@H]([C@H](C)/C=C/[C@H](C)C(C)C)CC[C@@H]12` [vitamin D-2], the “growth of P. falciparum in culture” value ([2]; higher levels) is listed as “inhibitory”.
In the case of `C=C1CC[C@H](O)C/C1=C/C=C1\CCC[C@]2(C)[C@@H]([C@H](C)CCCC(C)C)CC[C@@H]12` [vitamin D-3], the “growth of P. falciparum in culture” value ([2]; higher levels) is given as “inhibitory”.
In the case of “Human growth hormone: Human growth hormone, cited as raising Lp(a)”, the “increase of Lp(a)” value [4] is listed as “up to 120%”.
